Results on twelve compounds are retold here after ChEMBL document CHEMBL1201862, “PubChem BioAssay data set” (2004).

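Briefly, cells in 96-well plates were exposed to five compound concentrations for 48 h, and endpoints were estimated by linear interpolation. GI50 marks 50% less growth.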 Calls of active or inactive are those of the source. Rule as the data show it: active = GI50 up to about 1.1 µM and inactive = higher.

Among the test systems are MDA-N; SK-MEL-28; MDA-MB-231; SF-539; NCI-H23; SF-295; EKVX; A549; SN12C; ACHN; OVCAR-5; Hs-578T; K562; OVCAR-8; U-251; DU-145; NCI-H226; RXF 393.
Common to all, as to experiment: NCI tumour cell line growth inhibition, 48 h

As for `CN(C)C1C(CO)OC(n2cnc3c(N)ncnc32)C1O` (configuration not stated), the GI50 in the assay with MDA-N, in the assay on SK-MEL-28, in the assay on MDA-MB-231, with SF-539, in the assay with NCI-H23 and in the assay with SF-295 was > 100 µM (inactive) each time. For the same compound, the GI50 in the assay on EKVX, in the assay with A549, with SN12C, with ACHN, in the assay on OVCAR-5 and in the assay on Hs-578T was > 100 µM (inactive) each time. The GI50 in the assay on K562, in the assay with OVCAR-8, with U-251, in the assay on DU-145 and with NCI-H226 was > 100 µM (inactive) each time.
As for `CN1CCN(CC(=O)N2CCCn3c2nc2ccccc2c3=O)CC1`, the GI50 in the assay with MDA-N, with MDA-MB-231, with SF-539, with NCI-H23, in the assay on SF-295 and in the assay on EKVX was > 100 µM (inactive) each time. Also, the GI50 in the assay with A549, in the assay on SN12C, with ACHN, with OVCAR-5, in the assay with Hs-578T and with K562 was > 100 µM (inactive) throughout. In addition, the GI50 in the assay with OVCAR-8 was > 100 µM (inactive); in the assay with U-251, > 100 µM (inactive); with DU-145, > 100 µM (inactive); in the assay on NCI-H226, 52.1 µM (inactive).
Regarding `Cc1nc2c(o1)C(=O)c1ccccc1/C2=N/C1CCCCC1N` (configuration not stated), the GI50 in the assay on MDA-N was 0.185 µM (active); in the assay with SK-MEL-28, 0.166 µM (active); in the assay with MDA-MB-231, 0.373 µM (active); in the assay with SF-539, 0.32 µM (active); in the assay on NCI-H23 it was 0.0975 µM (active); in the assay on EKVX it was 1.11 µM (active). Further, the GI50 is 1.46 µM (inactive) in the assay on A549; 0.386 µM (active) in the assay on SN12C; 0.649 µM (active) in the assay on ACHN; 1.75 µM (inactive) with OVCAR-5; 0.644 µM (active) in the assay on Hs-578T; 0.235 µM (active) in the assay with K562. In addition, the GI50 was 0.274 µM (active) in the assay on OVCAR-8, 0.312 µM (active) with U-251, 1.48 µM (inactive) in the assay with DU-145 and 1.97 µM (inactive) in the assay on NCI-H226.
In the case of `COc1c(Sc2c(SCSc3cnc4ccccc4c3Sc3cnc4ccccc4c3OC)cnc3ccccc23)cnc2ccccc12`, the GI50 in the assay on MDA-N is 77.8 µM (inactive); with SK-MEL-28, 29 µM (inactive); in the assay with MDA-MB-231, 29 µM (inactive); in the assay with SF-539, > 100 µM (inactive); in the assay with NCI-H23, 54.8 µM (inactive); in the assay on SF-295, > 100 µM (inactive). Further, the GI50 was 35.7 µM (inactive) in the assay on EKVX; > 100 µM (inactive) in the assay on A549; > 100 µM (inactive) in the assay with SN12C; 82.6 µM (inactive) in the assay on ACHN; > 100 µM (inactive) in the assay with OVCAR-5; 52.2 µM (inactive) in the assay with Hs-578T. Besides, the values for the GI50 with OVCAR-8, in the assay on U-251 and in the assay with DU-145 were 31.7 µM (inactive), 30.1 µM (inactive) and > 100 µM (inactive), respectively.
Take `CC(=O)OC1C(Oc2c(C)cc3c(c2O)[C@@H](C)CC[C@@H]3[C@@H](C)CCC=C(C)C)OCC(O)C1O` (some centres not stated): the GI50 was 21 µM (inactive) in the assay on MDA-N; 19.8 µM (inactive) in the assay with MDA-MB-231; 18.5 µM (inactive) in the assay on SF-539; 17.9 µM (inactive) in the assay with NCI-H23; 19.4 µM (inactive) with SF-295; 14.8 µM (inactive) in the assay with A549. The GI50 in the assay on SN12C was 17.5 µM (inactive); with ACHN, 20.2 µM (inactive); with OVCAR-5, 16.9 µM (inactive); in the assay with Hs-578T it was 21.5 µM (inactive); in the assay with K562, 13.5 µM (inactive); with OVCAR-8, 21.9 µM (inactive). In addition, the GI50 was 17.3 µM (inactive) in the assay on U-251, 16.2 µM (inactive) with DU-145 and 17.6 µM (inactive) in the assay on NCI-H226.
For `CNC(=O)C1(C#N)C(c2ccccc2)C(C#N)(C(=O)NC)C1c1ccccc1` (configuration not stated), the GI50 in the assay with MDA-N, with SK-MEL-28, in the assay with SF-539, in the assay with NCI-H23, with SF-295 and with EKVX was > 100 µM (inactive) in each case. The GI50 in the assay on A549 was > 100 µM (inactive); in the assay on SN12C it was > 100 µM (inactive); in the assay on ACHN it was > 100 µM (inactive); in the assay with OVCAR-5 it was > 100 µM (inactive); in the assay with Hs-578T, > 100 µM (inactive); with K562 it was 24.4 µM (inactive). Moreover, the values for the GI50 with OVCAR-8, in the assay on U-251 and in the assay on NCI-H226 were > 100 µM (inactive), > 100 µM (inactive) and 98.9 µM (inactive), respectively.
Take `CC(C)(C)N/N=C(\C(=O)NC1=C(Cl)C(=O)c2ccccc2C1=O)C1C=CCS1(=O)=O` (configuration not stated): the GI50 in the assay on MDA-N was 2.44 µM (inactive); in the assay on SK-MEL-28, > 100 µM (inactive); in the assay on MDA-MB-231, 14.6 µM (inactive); with SF-539, 23.1 µM (inactive); in the assay on NCI-H23, 8.15 µM (inactive); in the assay with SF-295 it was 12.6 µM (inactive). The GI50 was 16.5 µM (inactive) with EKVX; 16.9 µM (inactive) in the assay on A549; 15.1 µM (inactive) in the assay on SN12C; 16.1 µM (inactive) in the assay on ACHN; 21.2 µM (inactive) with OVCAR-5; 19.5 µM (inactive) in the assay with Hs-578T. The GI50 with K562 is > 100 µM (inactive); in the assay on OVCAR-8 it was 19.8 µM (inactive); with U-251, > 100 µM (inactive); in the assay with DU-145, 11.1 µM (inactive); in the assay with NCI-H226, 12.6 µM (inactive).
As to `FC(F)(F)c1ccc(C2=N/S(c3ccccc3)=N\C(c3ccc(C(F)(F)F)cc3)=N/S(c3ccccc3)=N\2)cc1` (configuration not stated), the GI50 with MDA-N, in the assay on SK-MEL-28, with MDA-MB-231, in the assay with SF-539, in the assay on NCI-H23 and in the assay on SF-295 was > 100 µM (inactive) throughout. The GI50 with EKVX, in the assay on A549, in the assay on SN12C, in the assay on ACHN, in the assay with OVCAR-5 and in the assay with RXF 393 was > 100 µM (inactive) in each case. The GI50 with Hs-578T, in the assay with K562, in the assay on OVCAR-8, with U-251 and in the assay with DU-145 was > 100 µM (inactive) in each case.
`CCON1CC(C(=O)OC)=C(O)C1=O`: the GI50 in the assay with MDA-N, with SK-MEL-28, with MDA-MB-231, with NCI-H23, in the assay on SF-295 and with EKVX was > 100 µM (inactive) each time. Also, the GI50 in the assay with A549, in the assay on ACHN, in the assay on OVCAR-5, in the assay on RXF 393, in the assay with Hs-578T and in the assay on K562 was > 100 µM (inactive) in each case. The GI50 in the assay with OVCAR-8, with U-251 and in the assay on DU-145 was > 100 µM (inactive) each time.
Take `Fc1ccc(C(OCCN2CC3CCC(C2)N3CCCc2ccccc2)c2ccc(F)cc2)cc1`: the GI50 was 3.43 µM (inactive) in the assay on MDA-N; 8.99 µM (inactive) in the assay on SK-MEL-28; 2.74 µM (inactive) with MDA-MB-231; 1.99 µM (inactive) with SF-539; 4.25 µM (inactive) in the assay with NCI-H23; 3.15 µM (inactive) in the assay with SF-295. In addition, the GI50 in the assay with EKVX was 4.06 µM (inactive); in the assay on A549, 8.15 µM (inactive); in the assay with SN12C it was 3.81 µM (inactive); in the assay with ACHN, 10.6 µM (inactive); in the assay with OVCAR-5, 10.6 µM (inactive); in the assay with Hs-578T, 3.25 µM (inactive). The GI50 in the assay with K562 is 2 µM (inactive); in the assay on OVCAR-8, 2.3 µM (inactive); with U-251, 4.54 µM (inactive); in the assay with DU-145, 8.13 µM (inactive); with NCI-H226, 3.94 µM (inactive).
For the compound `Cc1ccc(S(=O)(=O)NC(CCC(=O)NNc2ccccc2)C(=O)NNc2ccccc2)cc1` (configuration not stated), the GI50 with MDA-N is 17.2 µM (inactive); with MDA-MB-231 it was > 100 µM (inactive); in the assay with SF-539 it was 17.5 µM (inactive); in the assay with NCI-H23 it was 61.4 µM (inactive); in the assay with SF-295 it was 10.4 µM (inactive); in the assay on EKVX it was > 100 µM (inactive). The GI50 in the assay on A549 was 15.6 µM (inactive); in the assay with ACHN it was 2.13 µM (inactive); in the assay with OVCAR-5 it was 46.8 µM (inactive); in the assay on RXF 393, > 100 µM (inactive); with Hs-578T, 64.1 µM (inactive); with K562, 85.9 µM (inactive). In addition, the GI50 in the assay with OVCAR-8 is 6.43 µM (inactive); in the assay on U-251 it was 3.08 µM (inactive); with NCI-H226, > 100 µM (inactive).
Consider `COc1cc2c(cc1OC)CCc1cc(OC)c(OC)cc1CC2`, for which the GI50 in the assay with MDA-N, with SK-MEL-28, in the assay on MDA-MB-231, in the assay with SF-539, in the assay with NCI-H23 and in the assay on SF-295 was > 100 µM (inactive) in each case. The GI50 in the assay with EKVX, in the assay on A549, with SN12C, in the assay on ACHN, in the assay with OVCAR-5 and in the assay on Hs-578T was > 100 µM (inactive) throughout. Besides, the GI50 with K562, in the assay on OVCAR-8, with U-251, in the assay with DU-145 and in the assay with NCI-H226 was > 100 µM (inactive) each time.
